Source: US10370343B2, “[6,6] Fused bicyclic HDAC8 inhibitors” (FORMA Therapeutics, Inc., priority 2015, dated 2019)
pIC50: −log10 of the molar value.

The molecules below were run against T1, Full length human recombinant HDAC8 protein (Homo sapiens, UniProt Q9BY41) (assay: In vitro histone deacetylase assay: enzymatic HDAC8 electrophoretic mobility shift assay). Settings: electrophoretic mobility shift assay; enzyme 1 nM; 2 μM fluorescently labeled peptide substrate RHKK(Ac)-NH2; 25° C.; 12 concentrations; read-out: HDAC8 IC50.
T1 construct: Full length human recombinant HDAC8 protein was expressed in baculoviral system; made in house
T1 sequence (Q9BY41 1-377): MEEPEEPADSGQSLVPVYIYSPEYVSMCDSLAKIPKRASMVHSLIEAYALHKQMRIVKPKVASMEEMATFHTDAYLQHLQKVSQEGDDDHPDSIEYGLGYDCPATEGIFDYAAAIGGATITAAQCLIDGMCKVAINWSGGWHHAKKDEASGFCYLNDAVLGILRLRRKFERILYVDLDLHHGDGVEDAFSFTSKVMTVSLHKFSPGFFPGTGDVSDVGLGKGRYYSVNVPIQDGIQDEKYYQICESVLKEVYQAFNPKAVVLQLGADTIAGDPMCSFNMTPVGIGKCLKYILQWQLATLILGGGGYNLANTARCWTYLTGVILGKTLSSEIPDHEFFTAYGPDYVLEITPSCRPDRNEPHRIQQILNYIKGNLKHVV
Type: biochemical

SMILES	pIC50
CS(=O)(=O)c1ccc(CN2C(=O)COc3ccc(C(=O)NO)cc32)c(Cl)c1 [Compound I-93, 4-(2-chloro-4-(methylsulfonyl)benzyl)-N-hydroxy-3-oxo-3,4-dihydro-2H-benzo[b][1,4]oxazine-6-carboxamide]	> 7.60
CC(c1ccccc1F)N1C(=O)COc2ccc(C(=O)NO)cc21 (stereo not drawn) [Compound I-95, 4-(1-(2-fluorophenyl)ethyl)-N-hydroxy-3-oxo-3,4-dihydro-2H-benzo[b][1,4]oxazine-6-carboxamide]	7.00 to 7.60
O=C(NO)c1ccc2c(c1)N(C(=O)N1CCCCC1)CCO2 [Compound I-97, N-hydroxy-4-(piperidine-1-carbonyl)-3,4-dihydro-2H-benzo[b][1,4]oxazine-6-carboxamide]	< 6.00
COc1ccc(CN2C(=O)C(CCN(C)C)Oc3ccc(C(=O)NO)cc32)cc1 (stereo not drawn) [Compound I-105, 2-(2-(dimethylamino)ethyl)-N-hydroxy-4-(4-methoxybenzyl)-3-oxo-3,4-dihydro-2H-benzo[b][1,4]oxazine-6-carboxamide]	7.00 to 7.60
O=C(NO)c1ccc2c(c1)N(c1nc3ccccc3[nH]1)CCC2 [Compound I-106, 1-(1H-benzo[d]imidazol-2-yl)-N-hydroxy-1,2,3,4-tetrahydroquinoline-7-carboxamide]	6.00 to 7.00
O=C(NO)c1ccc2c(c1)CCCN2c1nc2ccccc2[nH]1 [Compound I-107, 1-(1H-benzo[d]imidazol-2-yl)-N-hydroxy-1,2,3,4-tetrahydroquinoline-6-carboxamide]	< 6.00
O=C(NO)c1ccc2c(c1)N(c1nc3ccccc3[nH]1)CCO2 [Compound I-108, 4-(1H-benzo[d]imidazol-2-yl)-N-hydroxy-3,4-dihydro-2H-benzo[b][1,4]oxazine-6-carboxamide]	< 6.00
O=C(NO)c1ccc2c(c1)OCCN2c1nc2ccccc2[nH]1 [Compound I-109, 4-(1H-benzo[d]imidazol-2-yl)-N-hydroxy-3,4-dihydro-2H-benzo[b][1,4]oxazine-7-carboxamide]	< 6.00
COCCn1c(N2CCCc3ccc(C(=O)NO)cc32)nc2ccccc21 [Compound I-110, N-hydroxy-1-(1-(2-methoxyethyl)-1H-benzo[d]imidazol-2-yl)-1,2,3,4-tetrahydroquinoline-7-carboxamide]	6.00 to 7.00
COCCn1c(N2CCCc3cc(C(=O)NO)ccc32)nc2ccccc21 [Compound I-111, N-hydroxy-1-(1-(2-methoxyethyl)-1H-benzo[d]imidazol-2-yl)-1,2,3,4-tetrahydroquinoline-6-carboxamide]	6.00 to 7.00
COc1ccc(C(=O)N2CCCc3ccc(C(=O)NO)cc32)cc1 [Compound I-112, N-hydroxy-1-(4-methoxybenzoyl)-1,2,3,4-tetrahydroquinoline-7-carboxamide]	6.00 to 7.00
COc1ccc(C(=O)N2CCOc3ccc(C(=O)NO)cc32)cc1 [Compound I-113, N-hydroxy-4-(4-methoxybenzoyl)-3,4-dihydro-2H-benzo[b][1,4]oxazine-6-carboxamide]	< 6.00
O=C(NO)c1ccc2c(c1)N(C(=O)C1CCCCC1)CCO2 [Compound I-114, 4-(cyclohexanecarbonyl)-N-hydroxy-3,4-dihydro-2H-benzo[b][1,4]oxazine-6-carboxamide]	6.00 to 7.00
COc1ccc(CN2CCOc3ccc(C(=O)NO)cc32)cc1 [Compound I-115, N-hydroxy-4-(4-methoxybenzyl)-3,4-dihydro-2H-benzo[b][1,4]oxazine-6-carboxamide]	6.00 to 7.00
Cc1ccc(CN2CCOc3ccc(C(=O)NO)cc32)cc1 [Compound I-117, N-hydroxy-4-(4-methylbenzyl)-3,4-dihydro-2H-benzo[b][1,4]oxazine-6-carboxamide]	6.00 to 7.00
O=C(NO)c1ccc2c(c1)N(Cc1ccc(Cl)cc1)CCO2 [Compound I-118, 4-(4-chlorobenzyl)-N-hydroxy-3,4-dihydro-2H-benzo[b][1,4]oxazine-6-carboxamide]	7.00 to 7.60
O=C(NO)c1ccc2c(c1)N(Cc1ccc(C(F)(F)F)cc1)CCO2 [Compound I-119, N-hydroxy-4-(4-(trifluoromethyl)benzyl)-3,4-dihydro-2H-benzo[b][1,4]oxazine-6-carboxamide]	7.00 to 7.60
CS(=O)(=O)c1ccc(CN2CCOc3ccc(C(=O)NO)cc32)cc1 [Compound I-120, N-hydroxy-4-(4-(methylsulfonyl)benzyl)-3,4-dihydro-2H-benzo[b][1,4]oxazine-6-carboxamide]	7.00 to 7.60
COc1cccc(CN2CCOc3ccc(C(=O)NO)cc32)c1 [Compound I-121, N-hydroxy-4-(3-methoxybenzyl)-3,4-dihydro-2H-benzo[b][1,4]oxazine-6-carboxamide]	7.00 to 7.60
Cc1cccc(CN2CCOc3ccc(C(=O)NO)cc32)c1 [Compound I-122, N-hydroxy-4-(3-methylbenzyl)-3,4-dihydro-2H-benzo[b][1,4]oxazine-6-carboxamide]	7.00 to 7.60
O=C(NO)c1ccc2c(c1)N(Cc1cccc(Cl)c1)CCO2 [Compound I-123, 4-(3-chlorobenzyl)-N-hydroxy-3,4-dihydro-2H-benzo[b][1,4]oxazine-6-carboxamide]	7.00 to 7.60
O=C(NO)c1ccc2c(c1)N(Cc1cccc(C(F)(F)F)c1)CCO2 [Compound I-124, N-hydroxy-4-(3-(trifluoromethyl)benzyl)-3,4-dihydro-2H-benzo[b][1,4]oxazine-6-carboxamide]	> 7.60
COc1ccccc1CN1CCOc2ccc(C(=O)NO)cc21 [Compound I-126, N-hydroxy-4-(2-methoxybenzyl)-3,4-dihydro-2H-benzo[b][1,4]oxazine-6-carboxamide]	6.00 to 7.00
Cc1ccccc1CN1CCOc2ccc(C(=O)NO)cc21 [Compound I-127, N-hydroxy-4-(2-methylbenzyl)-3,4-dihydro-2H-benzo[b][1,4]oxazine-6-carboxamide]	7.00 to 7.60
O=C(NO)c1ccc2c(c1)N(Cc1ccccc1Cl)CCO2 [Compound I-128, 4-(2-chlorobenzyl)-N-hydroxy-3,4-dihydro-2H-benzo[b][1,4]oxazine-6-carboxamide]	> 7.60
O=C(NO)c1ccc2c(c1)N(Cc1ccccc1C(F)(F)F)CCO2 [Compound I-129, N-hydroxy-4-(2-(trifluoromethyl)benzyl)-3,4-dihydro-2H-benzo[b][1,4]oxazine-6-carboxamide]	6.00 to 7.00
CS(=O)(=O)c1ccccc1CN1CCOc2ccc(C(=O)NO)cc21 [Compound I-130, N-hydroxy-4-(2-(methylsulfonyl)benzyl)-3,4-dihydro-2H-benzo[b][1,4]oxazine-6-carboxamide]	6.00 to 7.00
O=C(NO)c1ccc2c(c1)N(Cc1ccccc1OC(F)F)CCO2 [Compound I-131, 4-(2-(difluoromethoxy)benzyl)-N-hydroxy-3,4-dihydro-2H-benzo[b][1,4]oxazine-6-carboxamide]	7.00 to 7.60
O=C(NO)c1ccc2c(c1)N(Cc1cccc(OC(F)F)c1)CCO2 [Compound I-132, 4-(3-(difluoromethoxy)benzyl)-N-hydroxy-3,4-dihydro-2H-benzo[b][1,4]oxazine-6-carboxamide]	> 7.60
O=C(NO)c1ccc2c(c1)N(CC1CCCCC1)CCO2 [Compound I-133, 4-(cyclohexylmethyl)-N-hydroxy-3,4-dihydro-2H-benzo[b][1,4]oxazine-6-carboxamide]	7.00 to 7.60
